Source: US20100098640A1, “Multidentate Pyrone-Derived Chelators for Medicinal Imaging and Chelation” (priority 2005, published 2010)

Columns and labels:
Format in all cases: physicochemical
[1] = Protonation constants of free ligands by potentiometric titration; settings: 1.0 M aqueous NaCl, ligand ~0.5 mM
Method: Thermodynamic evaluation of the new ligands can include potentiometric determination of the ligand protonation constants and spectrophotometric evaluation of the Gd^3+, Ca^2+, and Zn^2+ stability constants. In order to determine the stability of these ligands with Gd^3+, first the protonation constants for each ligand is determined. The protonation constants can be measured by potentiometric titration and the assignment of these protonations can be made using ^1H NMR titrations. ^1H NMR titration experiments use changes in the chemical shift of the non-exchangeable protons on the ligand to assign the sites of protonation; data is plotted as chemical shift vs. pD.
The experimental protocols and equipment used have been previously described (Johnson, A. R., et al. Inorg. Chem. 2000, 39, 2652). To determine the protonation constants of the free ligands, approximately 15 mg of ligand was dissolved in 50 mL of a 1.0 M aqueous solution of NaCl in a titration vessel (ligand concentration ˜0.5 mM). Protonation constants of TRENMAM and TREN-Me-MAM were examined by potentiometric (pH vs total proton concentration) titrations by using Hyperquad (Gans, P. et al. Talanta 1996, 43, 1739) for data analysis. Each protonation constant determination is the result from at least three experiments (where each experiment consists of two titrations, the first one titrated with acid, followed by a reverse titration with base). The equilibration time between additions of titrant was 90 seconds.

[2] = Competition batch titration with DTPA (pGd); settings: pH 7.4, 24 h equilibration, three titrations
Text: The affinity of these ligands for protons and metal ions in solution is described in terms of formation constants. The protonation of a metal complex can be subsequently calculated from the appropriate cumulative constants. The stability of metal complexes can be discussed in terms of the pM value (in this case pGd) which is expressed as
Although a pM value can be calculated under various conditions (e.g. different pH's or relative concentrations), in the context of a biological scenario the following parameters are commonly used for comparison: [M]=1 μM, [L]=10 μM, and pH=7.4.
The stability of the heteropodate ligands with Gd^3+, Ca^2+, and Zn^2+ can be measured by spectrophotometric titration. The strong UV absorptions (π→π*) of the pyrone rings of the ligands can be monitored in order to follow the complexation reaction (FIG. 2). The titration can be performed in a batch mode, collecting between 20-40 spectra, monitored between 200-500 nm for each titration of a ligand in the presence of an equal molar amount of Gd^3+, Ca^2+ or Zn^2+. […]

Aqueous solubility = assay: Aqueous solubility

Row | Compound | log K1 (protonation constant) [1] | log K2 (protonation constant) [1] | log K3 (protonation constant) [1] | log K4 (protonation constant) [1] | pGd [2] | water solubility compared to the TREN-Me-MAM ligand (Aqueous solubility)
1 | O=C(NCCN(CCNC(=O)c1occc(=O)c1O)CCNC(=O)c1occc(=O)c1O)c1occc(=O)c1O [TRENMAM] | 7.33(1) | 5.76(1) | 4.97(2) | 3.84(2) | 19.27±0.08 | improved water solubility
2 | tris(aminoethyl)amine)methylmaltolamide [TREN-Me-MAM] | 7.91(1) | 6.30(2) | 5.48(2) | 4.46(2) | 19.03±0.04 | –
